Reference: US11628176B2, “Combinational drug therapies” (Opna Bio SA, priority 2020, dated 2023)
Like-named read-outs stand apart in the source and are kept apart here.

Experiments:
[1] = system: 22Rv1 cells; assay: Prostate cancer cell growth assay, single compound (CellTiter-Glo); type: cell-based; details: Homo sapiens, 120 h, 22Rv1 cell growth, 5 days incubation
Procedure: (§1) Growth assays were done in triplicate and performed as follows.
(§2) 1. On Day 1, LNCaP and 22Rv1 cells were seeded in wells of a 96-well plate at a density of 3000 cells/well in 100 μL of culture media (RPMI 1640 medium supplemented with 10% fetal bovine serum and 1% Penicillin/Streptomycin). Cells were incubated overnight at 37° C. in a humidified atmosphere with 5% CO2.
(§3) 2. On Day 2, for single compound treatment studies, each compound was serially diluted 1:3 in DMSO to create a 9-point titration. A 3 μL aliquot of each dilution was added to 747 μL culture media and 100 μL were added to each triplicate well. Wells containing 0.2% DMSO-treated cells served as uninhibited controls.
(§4) In all studies, cells were incubated at 37° C. in a humidified atmosphere with 5% CO2 for 5 days.
(§5) 3. On Day 7, cell cultures were brought to room temperature for 30 minutes and 50 μL of reconstituted CellTiter-Glo Reagent was added to each well. Plates were shaken at room temperature for approximately 15 minutes Luminescent signal was quantified on a microplate reader.
(§6) 1. For single compound treatment study, all responses were expressed as % inhibition (the percentage inhibition compared to the average response of the DMSO-treated control wells). The data were analyzed by using nonlinear regression to generate IC50 values in Prism (GraphPad, La Jolla, Calif.). 95% confident interval (CI95) of the IC50 values were also calculated in Prism.

[2] = system: LNCaP cells; assay: as above; type: cell-based; details: Homo sapiens, 120 h, 5 days incubation
Procedure: as §1, §2, §3, §4, §5, §6

[3] = n=3, read-out: IC50 (geometric mean)

IC50 [1, 3] [nM]	IC50 [2, 3] [nM]	IC50 ([1]; read-out: IC50) [nM]	IC50 ([2]; read-out: IC50) [nM]	Compound
42000	3500	–	–	CC(=O)O[C@H]1CC[C@@]2(C)C(=CC[C@@H]3[C@@H]2CC[C@]2(C)C(c4cccnc4)=CC[C@@H]32)C1 [Abiraterone acetate, abiraterone acetate, reference compound]
34	43	34	43	Cc1noc(C)c1-c1cnc2c(-c3ccc(C(=O)O)cc3)cn(C(C)(c3ccccn3)c3ccccn3)c2c1 [Compound I, 4-(1-(1,1-di(pyridin-2-yl)ethyl)-6-(3,5-dimethylisoxazol-4-yl)-1H-pyrrolo[3,2-b]pyridin-3-yl)benzoic acid]
